Measurements as given in US20220041613A1, “TYROSINE KINASE INHIBITOR COMPOSITIONS, METHODS OF MAKING AND METHODS OF USE” (Black Diamond Therapeutics, Inc., priority 2018, published 2022).
Entries after “also recorded” stand apart in the source; their conditions may differ. Where two headings read alike, the source gives them in different places.

Legend:
[1] = test system: covalently-activated EGFR variants (EGFR-Viii, EGFR-Vii, EGFR-Vvi, EGFR-A289V); test: Western blot under non-reducing conditions: monomeric versus covalently dimerized and phosphorylated EGFR; format: cell-based, Homo sapiens
EGFR WT = target: T1, EGFR WT (Homo sapiens, UniProt P00533); test: Assay for cell proliferation (CellTiterGlo), Activity for Inhibiting EGFR; format: cell-based; conditions: potency code, 3 days drug
T1 construct: endogenous in cells; host or cells: A431 (+H292)

EGFR NPH = target: T2, EGFR NPH (Homo sapiens, UniProt P00533, INS773NPH); test: Assay for cell proliferation (BaF3 transformants, CellTiterGlo), Activity for Inhibiting EGFR; format: cell-based; conditions: potency code, 3 days drug
T2 construct: expressed in transfected cells; host or cells: BaF3 (murine pro-B), retroviral pMXs-IRES-Blasticidin, selected for IL-3 independence
Procedure: (§1) Retroviral Production: EGFR mutants were subcloned into pMXs-IRES-Blasticidin (RTV-016, Cell Biolabs, San Diego, Calif.). Retroviral expression vector retrovirus was produced by transient transfection of HEK 293T cells with the retroviral EGFR mutant expression vector pMXs-IRES-Blasticidin (RTV-016, Cell Biolabs), pCMV-Gag-Pol vector and pCMV-VSV-G-Envelope vector. HEK 293T/17 cells were plated in 100 mm collagen coated plate (354450, Corning Life Sciences, Tewksbury, Mass.) (4×10^5 per plate) and incubated overnight. The next day, retroviral plasmids (3 μg of EGFR mutant, 1.0 μg of pCMV-Gag-Pol and 0.5 μg pCMV-VSV-G) were mixed in 500 μl of Optimem (31985, Life Technologies). The mixture was incubated at room temperature for 5 min and then added to Optimem containing transfection reagent Lipofectamine (11668, Invitrogen) and incubated for 20 minutes. Mixture was then added dropwise to HEK 293T cells. The next day the medium was replaced with fresh culture medium and retrovirus was harvested @ 24 and 48 hrs. Generation of EGFR mutant stable cell lines: BaF3 cells (1.5E5 cells) were infected with 1 ml of viral supernatant supplemented with 8 μg/ml polybrene by centrifuging for 30 min at 1000 rpm. Cells were placed in a 37° C. incubator overnight. Cells were then spun for 5 minutes to pellet the cells. Supernatant was removed and cells re-infected a fresh 1 ml of viral supernatant supplemented with 8 μg/ml polybrene by centrifuging for 30 min at 1000 rpm. Cells were placed in 37° C. incubator overnight. […] After 48 hours cells were selected for retroviral infection in 10 μg/ml Blasticidin for one week. Blasticidin resistant populations were washed twice in phosphate buffered saline before plating in media lacking IL-3 to select for IL-3 independent growth.
as §1, with “fresh 1 m1 of viral” for “fresh 1 ml of viral”

EGFR SVD = target: T3, EGFR SVD (Homo sapiens, UniProt P00533, INS770SVD); test: as above; format: cell-based; conditions: potency code, 3 days drug
T3 construct: expressed in transfected cells; host or cells: BaF3 (murine pro-B), retroviral pMXs-IRES-Blasticidin, selected for IL-3 independence
Procedure: as §1
as §1, with “fresh 1 m1 of viral” for “fresh 1 ml of viral”

EGFR V3 (EGFR-Viii) = target: T4, EGFR V3 (EGFR-Viii) (Homo sapiens, UniProt P00533, DELINS30-297G); test: as above; format: cell-based; conditions: potency code, 3 days drug
T4 construct: expressed in transfected cells; host or cells: BaF3 (murine pro-B), retroviral pMXs-IRES-Blasticidin, selected for IL-3 independence
Procedure: as §1
as §1, with “fresh 1 m1 of viral” for “fresh 1 ml of viral”

HER2 WT = target: T5, HER2 WT (Homo sapiens, UniProt P04626); test: Assay for cell proliferation (CellTiterGlo), Activity for Inhibiting HER2; format: cell-based
T5 construct: endogenous in cells; host or cells: BT474

HER2 S310F = target: T6, HER2 S310F (Homo sapiens, UniProt P04626, S310F); test: Assay for cell proliferation (BaF3 transformants, CellTiterGlo), Activity for Inhibiting HER2; format: cell-based; conditions: potency code, 3 days drug
T6 construct: expressed in transfected cells; host or cells: BaF3 (murine pro-B) transformants

HER2 YVMA = target: T7, HER2 YVMA (Homo sapiens, UniProt P04626, INS775YVMA); test: as above; format: cell-based; conditions: potency code, 3 days drug
T7 construct: expressed in transfected cells; host or cells: BaF3 (murine pro-B) transformants

[2] = test system: BaF3 cells expressing EGFR-Viii, EGFR-Vii or EGFR-A289V; test: Proliferation of BaF3 cells expressing covalently-activated EGFR; format: cell-based, murine
GBM = conditions: cited from earlier work; for clinical benefit in GBM: >30 clinical trials and >1500 patients
[3] = 'about ... or less', read-out: IC50 value for inhibiting wild-type HER2
[4] = Table B (Example 2), potency code, 3 days drug, read-out: HER2 WT
[5] = Table B, potency code, 3 days drug, read-out: HER2 WT
[6] = covalent dimers of covalently-activated EGFR variants, cells expressing EGFR-Vii and EGFR-A289V (FIG. 8)
[7] = sub-saturating concentrations, up to 72 hours
[8] = phase 2 study, erlotinib in combination with radiation and temozolomide

T7 sequence (P04626 with tags, fused parts or gaps INS775YVMA): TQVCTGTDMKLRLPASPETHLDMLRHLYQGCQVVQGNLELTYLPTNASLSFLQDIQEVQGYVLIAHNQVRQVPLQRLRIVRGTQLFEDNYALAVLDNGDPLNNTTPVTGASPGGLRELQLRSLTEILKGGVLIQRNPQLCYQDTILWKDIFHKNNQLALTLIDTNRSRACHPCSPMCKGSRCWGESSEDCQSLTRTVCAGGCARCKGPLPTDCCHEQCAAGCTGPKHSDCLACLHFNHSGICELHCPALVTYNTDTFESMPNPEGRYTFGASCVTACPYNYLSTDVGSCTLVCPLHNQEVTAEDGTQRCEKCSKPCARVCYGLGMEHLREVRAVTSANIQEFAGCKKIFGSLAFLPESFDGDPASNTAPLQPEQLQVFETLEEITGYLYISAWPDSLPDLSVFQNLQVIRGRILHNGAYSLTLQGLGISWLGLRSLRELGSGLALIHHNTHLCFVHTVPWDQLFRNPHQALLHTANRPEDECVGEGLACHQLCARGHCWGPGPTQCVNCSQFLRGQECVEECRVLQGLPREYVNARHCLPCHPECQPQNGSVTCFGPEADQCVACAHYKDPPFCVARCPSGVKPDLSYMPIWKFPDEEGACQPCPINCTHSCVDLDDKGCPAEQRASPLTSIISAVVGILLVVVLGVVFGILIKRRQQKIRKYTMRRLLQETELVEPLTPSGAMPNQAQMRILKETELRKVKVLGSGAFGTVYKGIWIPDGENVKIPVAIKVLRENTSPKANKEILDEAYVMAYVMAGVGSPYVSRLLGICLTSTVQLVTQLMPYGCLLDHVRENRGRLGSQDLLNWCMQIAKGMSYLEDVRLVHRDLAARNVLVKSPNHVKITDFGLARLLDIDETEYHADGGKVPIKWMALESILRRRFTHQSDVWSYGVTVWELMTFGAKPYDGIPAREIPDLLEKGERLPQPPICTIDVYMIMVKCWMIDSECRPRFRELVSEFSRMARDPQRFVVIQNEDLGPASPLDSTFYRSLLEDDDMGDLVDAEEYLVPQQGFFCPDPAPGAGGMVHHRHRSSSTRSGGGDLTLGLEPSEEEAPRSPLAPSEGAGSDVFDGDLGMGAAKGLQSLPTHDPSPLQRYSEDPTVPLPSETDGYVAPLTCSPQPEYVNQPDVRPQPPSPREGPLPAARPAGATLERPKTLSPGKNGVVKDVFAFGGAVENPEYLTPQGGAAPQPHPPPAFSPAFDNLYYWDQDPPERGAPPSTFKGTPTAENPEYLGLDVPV
T2 sequence (P00533 with tags, fused parts or gaps INS773NPH): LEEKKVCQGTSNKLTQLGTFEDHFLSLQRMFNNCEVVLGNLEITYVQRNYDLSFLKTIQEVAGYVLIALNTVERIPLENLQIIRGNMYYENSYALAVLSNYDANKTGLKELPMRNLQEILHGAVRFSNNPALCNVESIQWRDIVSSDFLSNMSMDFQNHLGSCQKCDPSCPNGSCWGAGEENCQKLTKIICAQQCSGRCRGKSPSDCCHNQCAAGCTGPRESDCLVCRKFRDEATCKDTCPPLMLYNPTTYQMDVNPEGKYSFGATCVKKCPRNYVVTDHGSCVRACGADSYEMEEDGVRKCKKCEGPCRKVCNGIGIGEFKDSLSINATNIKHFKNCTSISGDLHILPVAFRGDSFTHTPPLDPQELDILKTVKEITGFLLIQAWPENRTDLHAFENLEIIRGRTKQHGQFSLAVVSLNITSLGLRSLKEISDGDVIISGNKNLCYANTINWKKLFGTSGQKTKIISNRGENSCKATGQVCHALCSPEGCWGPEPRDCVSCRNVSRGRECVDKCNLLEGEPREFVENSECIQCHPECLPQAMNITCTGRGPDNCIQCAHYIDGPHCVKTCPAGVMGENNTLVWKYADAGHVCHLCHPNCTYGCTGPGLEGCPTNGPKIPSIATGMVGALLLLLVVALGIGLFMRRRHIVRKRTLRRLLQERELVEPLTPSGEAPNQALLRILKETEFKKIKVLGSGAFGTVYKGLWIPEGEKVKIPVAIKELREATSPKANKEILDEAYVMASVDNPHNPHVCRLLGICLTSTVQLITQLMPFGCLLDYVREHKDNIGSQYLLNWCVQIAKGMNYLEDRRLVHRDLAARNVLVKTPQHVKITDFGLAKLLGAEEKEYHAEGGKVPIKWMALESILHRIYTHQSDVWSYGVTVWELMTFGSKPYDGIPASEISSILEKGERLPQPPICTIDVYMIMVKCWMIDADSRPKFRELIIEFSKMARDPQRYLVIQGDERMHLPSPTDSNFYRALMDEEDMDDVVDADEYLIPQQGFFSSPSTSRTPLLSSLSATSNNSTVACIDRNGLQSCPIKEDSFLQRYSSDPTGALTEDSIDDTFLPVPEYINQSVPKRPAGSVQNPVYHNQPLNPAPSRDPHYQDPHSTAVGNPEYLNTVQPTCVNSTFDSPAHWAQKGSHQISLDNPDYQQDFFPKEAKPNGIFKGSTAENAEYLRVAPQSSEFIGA
T6 sequence (P04626 23-1255 S310F): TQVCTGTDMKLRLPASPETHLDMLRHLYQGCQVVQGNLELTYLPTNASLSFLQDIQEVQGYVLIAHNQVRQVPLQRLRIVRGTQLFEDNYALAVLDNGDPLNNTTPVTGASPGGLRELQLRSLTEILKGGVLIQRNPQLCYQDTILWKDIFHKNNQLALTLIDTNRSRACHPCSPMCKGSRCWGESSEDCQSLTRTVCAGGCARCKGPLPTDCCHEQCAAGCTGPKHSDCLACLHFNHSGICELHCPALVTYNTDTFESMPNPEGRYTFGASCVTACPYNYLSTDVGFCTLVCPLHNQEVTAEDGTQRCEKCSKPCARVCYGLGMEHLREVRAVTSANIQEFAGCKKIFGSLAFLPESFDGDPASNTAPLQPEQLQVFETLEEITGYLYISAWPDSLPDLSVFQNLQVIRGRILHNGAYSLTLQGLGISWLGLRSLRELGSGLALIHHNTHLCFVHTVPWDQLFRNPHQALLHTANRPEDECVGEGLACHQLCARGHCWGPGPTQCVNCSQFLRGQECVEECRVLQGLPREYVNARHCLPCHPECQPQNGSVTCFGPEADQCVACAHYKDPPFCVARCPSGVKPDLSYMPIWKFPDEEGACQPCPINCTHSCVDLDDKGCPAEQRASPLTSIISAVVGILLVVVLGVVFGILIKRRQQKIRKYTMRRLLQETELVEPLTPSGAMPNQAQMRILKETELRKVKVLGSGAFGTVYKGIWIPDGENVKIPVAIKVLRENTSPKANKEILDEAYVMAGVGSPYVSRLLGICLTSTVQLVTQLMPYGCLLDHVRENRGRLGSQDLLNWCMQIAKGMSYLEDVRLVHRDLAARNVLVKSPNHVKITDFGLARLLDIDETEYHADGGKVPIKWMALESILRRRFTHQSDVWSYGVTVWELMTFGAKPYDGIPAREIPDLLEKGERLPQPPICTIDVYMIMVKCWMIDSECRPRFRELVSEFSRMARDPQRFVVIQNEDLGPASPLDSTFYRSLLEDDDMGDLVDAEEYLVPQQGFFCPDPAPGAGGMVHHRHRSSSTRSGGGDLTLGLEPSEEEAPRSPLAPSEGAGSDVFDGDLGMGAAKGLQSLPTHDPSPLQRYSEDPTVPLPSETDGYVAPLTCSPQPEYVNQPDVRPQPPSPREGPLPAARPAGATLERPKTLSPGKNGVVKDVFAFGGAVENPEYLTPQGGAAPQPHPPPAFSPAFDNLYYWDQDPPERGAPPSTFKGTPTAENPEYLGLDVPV
T1 sequence (P00533 25-1210): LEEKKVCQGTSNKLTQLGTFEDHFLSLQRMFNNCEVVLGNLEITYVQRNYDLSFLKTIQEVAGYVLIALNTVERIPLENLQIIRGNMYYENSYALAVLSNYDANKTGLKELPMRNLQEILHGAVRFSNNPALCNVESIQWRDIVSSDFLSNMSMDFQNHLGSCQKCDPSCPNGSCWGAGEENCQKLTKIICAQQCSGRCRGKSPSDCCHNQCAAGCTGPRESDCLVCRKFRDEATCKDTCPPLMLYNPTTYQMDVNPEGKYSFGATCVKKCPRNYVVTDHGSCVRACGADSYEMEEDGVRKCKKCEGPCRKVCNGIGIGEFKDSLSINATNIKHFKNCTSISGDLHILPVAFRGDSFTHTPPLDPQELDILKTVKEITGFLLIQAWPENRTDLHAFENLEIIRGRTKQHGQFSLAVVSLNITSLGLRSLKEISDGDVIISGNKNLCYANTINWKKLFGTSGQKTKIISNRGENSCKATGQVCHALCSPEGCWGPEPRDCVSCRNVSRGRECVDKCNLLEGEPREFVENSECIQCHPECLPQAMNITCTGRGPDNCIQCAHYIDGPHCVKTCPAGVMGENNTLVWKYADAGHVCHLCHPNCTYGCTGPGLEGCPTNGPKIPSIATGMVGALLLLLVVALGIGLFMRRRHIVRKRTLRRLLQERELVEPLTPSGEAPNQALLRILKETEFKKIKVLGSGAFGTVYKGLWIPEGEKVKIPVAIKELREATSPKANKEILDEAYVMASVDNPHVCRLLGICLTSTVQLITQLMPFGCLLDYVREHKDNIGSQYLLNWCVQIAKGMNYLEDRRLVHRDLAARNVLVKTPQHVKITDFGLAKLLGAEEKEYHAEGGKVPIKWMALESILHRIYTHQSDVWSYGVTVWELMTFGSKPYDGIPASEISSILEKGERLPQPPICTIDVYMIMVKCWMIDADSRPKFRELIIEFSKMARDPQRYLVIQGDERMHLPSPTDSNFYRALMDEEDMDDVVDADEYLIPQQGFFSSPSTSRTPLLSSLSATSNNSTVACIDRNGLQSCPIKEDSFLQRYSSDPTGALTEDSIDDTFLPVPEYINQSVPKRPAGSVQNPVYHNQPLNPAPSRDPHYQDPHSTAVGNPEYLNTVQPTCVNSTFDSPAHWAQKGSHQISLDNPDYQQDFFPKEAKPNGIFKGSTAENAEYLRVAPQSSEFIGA

IC50 (EGFR WT; Table A (Example 2)) [nM] | IC50 (EGFR WT; Table A) [nM] | IC50 (EGFR V3 (EGFR-Viii); Table A (Example 2)) [nM] | IC50 (EGFR V3 (EGFR-Viii); Table A) [nM] | IC50 (HER2 WT; [3]) [nM] | IC50 (HER2 WT; [4]) [nM] | IC50 (HER2 WT; [5]) [nM] | IC50 (HER2 S310F; Table B (Example 2)) [nM] | IC50 (HER2 S310F; Table B) [nM] | SMILES | other results
– | – | – | – | – | – | – | – | – | C=CC(=O)Nc1cccc(Nc2nc(Nc3ccc(N4CCN(C(C)=O)CC4)cc3OC)ncc2C(F)(F)F)c1 [CO-1686] | Induced dimers [1]: Yes
300 to 500 | 300 to 500 | 30 to 50 | 30 to 50 | ≤ 10 | 5 to 10 | 5 to 10 | 10 to 20 | 10 to 20 | C=CC(=O)Nc1cc2c(Nc3ccc4c(cnn4Cc4cccc(F)c4)c3)ncnc2cc1C#CC(C)(C)N1CCN(C)CC1 [compound 9] | IC50 (EGFR NPH; Table A (Example 2)): 30 to 50 nM; IC50 (EGFR NPH; Table A): 30 to 50 nM; IC50 (EGFR SVD; Table A (Example 2)): 30 to 50 nM; IC50 (EGFR SVD; Table A): 30 to 50 nM; IC50 (HER2 YVMA; Table B (Example 2)): 50 to 100 nM; IC50 (HER2 YVMA; Table B): 50 to 100 nM
– | – | – | – | – | – | – | – | – | CCOc1cc2ncc(C#N)c(Nc3ccc(OCc4ccccn4)c(Cl)c3)c2cc1NC(=O)/C=C/CN(C)C [Neratinib, neratinib] | proliferation of cells expressing covalently-activated EGFR (paradoxical activation) [2]: devoid of paradoxical activation
500 to 1000 | 500 to 1000 | 30 to 50 | 30 to 50 | ≤ 20 | 10 to 20 | 10 to 20 | 100 to 200 | 100 to 200 | C=CC(=O)Nc1cc2c(Nc3ccc4c(cnn4Cc4cccc(F)c4)c3)ncnc2cc1N(C)CCCN1CCOCC1 [compound 4] | –
200 to 300 | 200 to 300 | 100 to 200 | 100 to 200 | ≤ 10 | 5 to 10 | 5 to 10 | 100 to 200 | 100 to 200 | C=CC(=O)Nc1cc2c(Nc3ccc4c(cnn4Cc4cccc(F)c4)c3)ncnc2cc1NCCN1CCOCC1 [compound 5] | –
100 to 200 | 100 to 200 | 20 to 30 | 20 to 30 | ≤ 10 | 5 to 10 | 5 to 10 | 10 to 20 | 10 to 20 | C=CC(=O)Nc1cc2c(Nc3ccc4c(cnn4Cc4cccc(F)c4)c3)ncnc2cc1OCCN1CCCCC1 [compound 8] | IC50 (EGFR NPH; Table A (Example 2)): 30 to 50 nM; IC50 (EGFR NPH; Table A): 30 to 50 nM; IC50 (EGFR SVD; Table A (Example 2)): 30 to 50 nM; IC50 (EGFR SVD; Table A): 30 to 50 nM; IC50 (HER2 YVMA; Table B (Example 2)): 100 to 200 nM; IC50 (HER2 YVMA; Table B): 100 to 200 nM
– | – | – | – | – | – | – | – | – | C=CC(=O)Nc1ccc2ncnc(Nc3ccc(OCc4cccc(F)c4)c(Cl)c3)c2c1 [AST-1306] | Induced dimers [1, 6]: No
500 to 1000 | 500 to 1000 | 50 to 100 | 50 to 100 | – | 20 to 30 | 20 to 30 | 100 to 200 | 100 to 200 | C=CC(=O)Nc1cc2c(Nc3ccc4c(cnn4Cc4cccc(F)c4)c3)ncnc2cc1N(C)CCN(C)C [compound 1] | –
300 to 500 | 300 to 500 | 100 to 200 | 100 to 200 | ≤ 20 | 10 to 20 | 10 to 20 | 100 to 200 | 100 to 200 | C=CC(=O)Nc1cc2c(Nc3ccc4c(cnn4Cc4cccc(F)c4)c3)ncnc2cc1N(C)CCCN1CC2CC1CO2 (stereo not shown) [compound 7] | –
– | – | – | – | – | – | – | – | – | C=CC(=O)Nc1cccc(Oc2nc(Nc3ccc(N4CCN(C)CC4)cc3OC)ncc2Cl)c1 [WZ4002] | Induced dimers [1]: Yes; proliferation of cells expressing covalently-activated EGFR (paradoxical activation) [2, 7]: biphasic effect on proliferation; also recorded: paradoxical stimulation of proliferation
– | – | – | – | – | – | – | – | – | C#Cc1cccc(Nc2ncnc3cc(OCCOC)c(OCCOC)cc23)c1 [Erlotinib, erlotinib] | clinical benefit in GBM (GBM): failed to produce any benefit; median OS (mOS) (GBM; [8]): 8.6 months; median PFS (mPFS) (GBM; [8]): 2.8 months
– | – | – | – | – | – | – | – | – | C=CC(=O)Nc1cccc(Oc2nc(Nc3ccc(N4CCN(C)CC4)cc3)ncc2Cl)c1 [WZ3146] | Induced dimers [1, 6]: Yes; proliferation of cells expressing covalently-activated EGFR (paradoxical activation) [2, 7]: biphasic effect on proliferation; also recorded: paradoxical stimulation of proliferation
> 1000 | > 1000 | 30 to 50 | 30 to 50 | – | 20 to 30 | 20 to 30 | 100 to 200 | 100 to 200 | C=CC(=O)Nc1cc2c(Nc3ccc4c(cnn4Cc4cccc(F)c4)c3)ncnc2cc1N(C)CCN1CCOCC1 [compound 2] | –
– | – | – | – | – | – | – | – | – | CN(C)C/C=C/C(=O)Nc1cc2c(Nc3ccc(F)c(Cl)c3)ncnc2cc1C#CC1[C@H]2COC[C@@H]12 (stereo partly shown) [NT-113] | formation of covalent EGFR dimers ([1]; cells expressing covalently-activated EGFR variants, non-reducing conditions): induces dimerization; proliferation of cells expressing covalently-activated EGFR (paradoxical activation) [2, 7]: no evidence for increased cellular proliferation
– | – | – | – | – | – | – | – | – | CCOc1cc2ncc(C#N)c(Nc3ccc(F)c(Cl)c3)c2cc1NC(=O)/C=C/CN(C)C [Pelitinib, pelitinib] | Induced dimers [1]: Yes
– | – | – | – | – | – | – | – | – | C=CC(=O)Nc1cccc(Sc2nc(Nc3ccc(N4CCN(C)CC4)cc3)ncc2Cl)c1 [WZ8040] | Induced dimers [1, 6]: Yes; proliferation of cells expressing covalently-activated EGFR (paradoxical activation) [2, 7]: biphasic effect on proliferation; also recorded: paradoxical stimulation of proliferation
– | – | – | – | – | – | – | – | – | COc1cc2ncnc(Nc3ccc(F)c(Cl)c3)c2cc1OCCCN1CCOCC1 [Gefitinib, gefinitinib] | clinical benefit in GBM (GBM): failed to produce any benefit
– | – | – | – | – | – | – | – | – | COc1cc2ncnc(Nc3ccc(F)c(Cl)c3)c2cc1NC(=O)/C=C/CN1CCCCC1 [Dacomitinib, dacomitinib] | Induced dimers [1, 6]: Yes
100 to 200 | 100 to 200 | 30 to 50 | 30 to 50 | ≤ 6 | < 5 | < 5 | 10 to 20 | 10 to 20 | C=CC(=O)Nc1cc2c(Nc3ccc4c(cnn4Cc4cccc(F)c4)c3)ncnc2cc1OCCCN1CC2CC1CO2 (stereo not shown) [compound 6] | –
100 to 200 | 100 to 200 | 20 to 30 | 20 to 30 | ≤ 6 | < 5 | < 5 | 20 to 30 | 20 to 30 | C=CC(=O)Nc1cc2c(Nc3ccc4c(cnn4Cc4cccc(F)c4)c3)ncnc2cc1OCCN(C)C [compound 10] | IC50 (EGFR NPH; Table A (Example 2)): 30 to 50 nM; IC50 (EGFR NPH; Table A): 30 to 50 nM; IC50 (EGFR SVD; Table A (Example 2)): 30 to 50 nM; IC50 (EGFR SVD; Table A): 30 to 50 nM; IC50 (HER2 YVMA; Table B (Example 2)): 50 to 100 nM; IC50 (HER2 YVMA; Table B): 50 to 100 nM
– | – | – | – | – | – | – | – | – | CCOc1cc2ncc(C#N)c(Nc3ccc(OCc4cccc(F)c4)c(Cl)c3)c2cc1NC(=O)/C=C/CN(C)C [HKI-357] | Induced dimers [1, 6]: No
